From patent US8735345B2, “Therapeutic composition” (Hoffmann la Roche Inc., priority 2009, dated 2014)

What was measured:
genotype 1 HCV = assay: HCV RNA viral load determination (COBAS AmpliPrep/COBAS TaqMan HCV Test) in a randomized, double-blind, placebo controlled, dose ranging study; type: in vivo, human; conditions: monotherapy 750 mg, bid; after 7 days of treatment
Method: A randomized, double-blind, placebo controlled, dose ranging study of Compound 1a and Compound 2 in adult patients with chronic hepatitis C genotype 1 was conducted. Approximately 54 treatment naïve males and females between 18 and 65 years of age (inclusive) with genotype 1 HCV infection who had not previously been treated with an interferon or investigational HCV therapeutic agent were enrolled. Approximately an additional 20 treatment patients who had failed treatment with the current standard of care (null, partial responders and relapsers) were enrolled. […] Subjects with liver cirrhosis or incomplete/transition to cirrhosis, or other forms of liver disease, anemia, HIV or HBV infection, hepatocellular carcinoma, cardiac disease or renal disease were excluded from this particular protocol, as well as pregnant or lactating women, women of childbearing potential, and male partners of women who are pregnant or lactating.
Seven groups, Groups I, II, III, IV, V, VI and VII, of subjects were studied. Blood samples were collected at time points to determine pharmacokinetics parameters, including Tmax, Cmax, Kel, T1/2, AUC, CL/F, Vd/F and accumulation ratio.
The specifics of Groups I, II, III, IV, V, VI and VII are shown in Table 1 below and pictorially in FIGS. 2 and 3. Group I included two arms with 8 subjects in Arm 1 and 8 subjects in Arm 2. […]

HCV replication = conditions: cited from earlier work

diisobutyl ester prodrug of β-D-2′-deoxy-2′-fluoro-2′-C-methylcytidine [Compound 1a]
mean log change from baseline in HCV RNA viral load (genotype 1 HCV): −1.3 log IU/mL

CC(C)(C)OC(=O)N[C@H]1CCCCCC=C[C@@H]2C[C@@]2(C(=O)NS(=O)(=O)C2CC2)NC(=O)[C@@H]2C[C@@H](OC(=O)N3Cc4cccc(F)c4C3)CN2C1=O [Compound 2, (1S,4R,6S,14S,18R)-4-Fluoro-1,3-dihydro-isoindole-2-carboxylic acid 14-tert-butoxycarbonylamino-4-cyclopropanesulfonylaminocarbonyl-2,15-dioxo-3,16-diaza-tricyclo[14.3.0.04,6]nonadec-7-en-18-yl ester]
inhibition of HCV replication (HCV replication): effective in inhibiting HCV replication

C[C@@]1(F)[C@H](O)[C@@H](CO)O[C@H]1n1ccc(N)nc1=O [Compound 1, β-D-2′-deoxy-2′-fluoro-2′-C-methylcytidine]
inhibition of HCV replication (HCV replication): effective in inhibiting HCV replication
